Data taken from ChEMBL document CHEMBL4831528, “Discovery of Novel Pterostilbene-Based Derivatives as Potent and Orally Active NLRP3 Inflammasome Inhibitors with Inflammatory Activity for Colitis” (J Med Chem, 2021).
Calls of active or inactive are those of the source. No cut-off for these calls is given here.

What was measured:
[1] = Toxicity in C57BL/6 mouse assessed as effect on activity at 10 to 20 mg/kg, ig administered for 28 days; type: organism-based; conditions: in vivo, po, 672 h, dose 10-20 mg/kg, time 28 day
[2] = molecular target: NACHT, LRR and PYD domains-containing protein 3 (Mus musculus) (UniProt Q8R4B8); experiment: (§1) Inhibition of NLRP3 inflammasome activation in LPS-stimulated mouse J774A.1 cells assessed as inhibition of cell pyrolysis at 20 uM incubated for 1 hr followed by ATP addition and measured after 30 mins by Hoechst 33342/propidium iodide staining based high content screening method relative to control; conditions: J774.A1, time 1.5 hrs
[3] = Toxicity in C57BL/6 mouse assessed as effect on fur at 10 to 20 mg/kg, ig administered for 28 days; type: organism-based; conditions: in vivo, po, 672 h, dose 10-20 mg/kg, time 28 day
Mus musculus [4] = experiment: In vivo inhibition of NLRP3 inflammasome activation in C57BL/6 mouse assessed as reduction in MPO activity at 20 mg/kg, ig administered for 7 days by ELISA; type: functional, organism-based; conditions: time 7.0 day
L02 = experiment: Cytotoxicity against human L-02 cells incubated for 24 hrs by MTT assay; type: cell-based; conditions: L02, 24 h
[5] = Toxicity in C57BL/6 mouse assessed as reduction in survival rate at 20 mg/kg, ig administered for 28 days; type: organism-based; conditions: in vivo, po, 672 h, time 28 day
[6] = molecular target: NACHT, LRR and PYD domains-containing protein 3 (Mus musculus, UniProt Q8R4B8); experiment: Inhibition of NLRP3 inflammasome activation in LPS-stimulated mouse bone marrow-derived macrophages assessed as reduction in IL-1beta secretion preincubated for 30 mins followed by nigericin addition and measured after 30 mins by ELISA; type: tissue-based, Macrophage
[7] = Toxicity in C57BL/6 mouse assessed as effect on diet at 10 to 20 mg/kg, ig administered for 28 days; type: organism-based; conditions: in vivo, po, 672 h, dose 10-20 mg/kg, time 28 day
Mus musculus [8] = experiment: In vivo inhibition of NLRP3 inflammasome activation in C57BL/6 mouse assessed as reduction in MPO activity at 10 mg/kg, ig administered for 7 days by ELISA; type: functional, organism-based; conditions: time 7.0 day
Mus musculus [9] = experiment: Protection against DSS-induced acute ulcerative colitis in C57BL/6 mouse assessed as reduction in adhesion of colon at 20 mg/kg, ig administered for 7 days; type: functional, organism-based; conditions: time 7.0 day
Mus musculus [10] = experiment: Anti-inflammatory activity in C57BL/6 mouse DSS-induced acute ulcerative colitis assessed as reduction in disease index at 10 to 20 mg/kg, ig administered for 7 days; type: functional, organism-based; conditions: dose 10-20 mg/kg, time 7.0 day
[11] = molecular target: NACHT, LRR and PYD domains-containing protein 3 (Mus musculus) (UniProt Q8R4B8); experiment: as §1, with “10” for “20”; conditions: J774.A1, time 1.5 hrs
[12] = Toxicity in C57BL/6 mouse assessed as effect on spirit at 10 to 20 mg/kg, ig administered for 28 days; type: organism-based; conditions: in vivo, po, 672 h, dose 10-20 mg/kg, time 28 day
[13] = Intrinsic clearance in mouse liver microsomes preincubated for 5 mins followed by NADPH addition and measured after 5 to 60 mins by LC-MS/MS analysis; type: ADME, Microsome; conditions: time 5-60 min, read-out: CLH
[14] = Half life in human liver microsomes preincubated for 5 mins followed by NADPH addition and measured after 5 to 60 mins by LC-MS/MS analysis; type: ADME, Microsome
[15] = Intrinsic clearance in human liver microsomes preincubated for 5 mins followed by NADPH addition and measured after 5 to 60 mins by LC-MS/MS analysis; type: ADME, Microsome; conditions: time 5-60 min, read-out: CLH
[16] = Hepatic clearance in human liver microsomes preincubated for 5 mins followed by NADPH addition and measured after 5 to 60 mins by LC-MS/MS analysis; type: ADME, Microsome; conditions: time 5-60 min
[17] = Half life in mouse liver microsomes preincubated for 5 mins followed by NADPH addition and measured after 5 to 60 mins by LC-MS/MS analysis; type: ADME, Microsome; conditions: time 5-60 min
[18] = Hepatic clearance in mouse liver microsomes preincubated for 5 mins followed by NADPH addition and measured after 5 to 60 mins by LC-MS/MS analysis; type: ADME, Microsome; conditions: time 5-60 min
Macrophage = experiment: Inhibition of NFkappaB activation in LPS-stimulated mouse bone marrow-derived macrophages assessed as reduction in TNFalpha secretion preincubated for 30 mins followed by nigericin addition and measured after 30 mins by ELISA; type: tissue-based; conditions: time 60.0 min

NACHT, LRR and PYD domains-containing protein 3 (Mus musculus), sequence (Q8R4B8 whole entry, the tested form may be a part): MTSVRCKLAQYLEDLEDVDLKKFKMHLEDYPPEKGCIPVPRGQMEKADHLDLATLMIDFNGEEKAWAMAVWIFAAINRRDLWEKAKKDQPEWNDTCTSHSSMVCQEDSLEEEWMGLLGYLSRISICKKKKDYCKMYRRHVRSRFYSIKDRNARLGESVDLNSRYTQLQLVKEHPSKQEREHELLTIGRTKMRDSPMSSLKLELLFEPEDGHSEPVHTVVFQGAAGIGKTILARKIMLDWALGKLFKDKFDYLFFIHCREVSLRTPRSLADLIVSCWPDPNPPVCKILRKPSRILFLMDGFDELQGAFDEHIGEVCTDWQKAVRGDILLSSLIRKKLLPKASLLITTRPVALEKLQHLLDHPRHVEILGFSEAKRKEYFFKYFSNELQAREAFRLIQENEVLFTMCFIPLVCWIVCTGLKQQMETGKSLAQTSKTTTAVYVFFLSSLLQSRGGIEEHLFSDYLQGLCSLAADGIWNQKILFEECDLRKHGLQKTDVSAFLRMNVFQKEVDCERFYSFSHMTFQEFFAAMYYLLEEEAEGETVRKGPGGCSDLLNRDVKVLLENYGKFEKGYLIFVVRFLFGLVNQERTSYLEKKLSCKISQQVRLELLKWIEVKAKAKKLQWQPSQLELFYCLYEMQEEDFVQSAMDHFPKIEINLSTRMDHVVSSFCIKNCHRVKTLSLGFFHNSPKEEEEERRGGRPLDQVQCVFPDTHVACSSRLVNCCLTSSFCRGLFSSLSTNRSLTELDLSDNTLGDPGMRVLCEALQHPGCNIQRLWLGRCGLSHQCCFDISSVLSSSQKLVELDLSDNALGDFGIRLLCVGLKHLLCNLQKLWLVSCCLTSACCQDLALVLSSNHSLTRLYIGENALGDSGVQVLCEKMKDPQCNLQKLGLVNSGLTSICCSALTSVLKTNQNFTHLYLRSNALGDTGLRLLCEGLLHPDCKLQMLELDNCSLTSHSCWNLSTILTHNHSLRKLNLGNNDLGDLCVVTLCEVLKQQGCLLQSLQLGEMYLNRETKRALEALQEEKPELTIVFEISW
NACHT, LRR and PYD domains-containing protein 3, sequence (Q8R4B8 whole entry, the tested form may be a part): as above

| SMILES | inhibition [2] [%] | IC50 (L02) [µM] | IC50 [6] [µM] | inhibition [11] [%] | other results |
| --- | --- | --- | --- | --- | --- |
| COc1cc(/C=C/c2ccc(N)cc2)c(/C=C/[N+](=O)[O-])c(OC)c1 | 75.3 | 85.1 | 1.37 | 54.7 | Activity [1]: Toxic; Activity [3]: Toxic; inhibition (Mus musculus [4]): inactive; Activity [5]: Toxic; Activity [7]: Toxic; inhibition (Mus musculus [8]): Active; Activity (Mus musculus [9]): Active; Activity (Mus musculus [10]): Active; Activity [12]: Toxic |
| COc1ccc2c(c1)[C@]13CCCC[C@@H]1[C@H](C2)N(C)CC3 [DEXTROMETHORPHAN] | – | – | – | – | microsomal CLint [13]: 83.3 µL/min/mg; half-life [14]: 31.2 min; microsomal CLint [15]: 44.5 µL/min/mg; CLhep predicted [16]: 14.8 mL/min/kg; half-life [17]: 16.6 min; CLhep predicted [18]: 70.6 mL/min/kg |
| COc1cc(/C=C/c2ccc(O)cc2)c(/C=C/[N+](=O)[O-])c(OC)c1 | 31.5 | > 100 | > 10 | 13.3 | – |
| COc1cc(/C=C/c2ccc(OCC(=O)NCc3ccc(Br)cc3)cc2)c(/C=C/[N+](=O)[O-])c(OC)c1 | 34.9 | > 100 | 9.68 | 24 | – |
| COc1cc(/C=C/c2ccc(O)cc2)cc(OC)c1 [PTEROSTILBENE] | 21.2 | > 100 | > 10 | – | inhibition (Macrophage): Active |
| CCCCNC(=O)COc1ccc(/C=C/c2cc(OC)cc(OC)c2/C=C/[N+](=O)[O-])cc1 | 70.1 | > 100 | 7.18 | 40.9 | – |
| O=[N+]([O-])/C=C/c1ccc2c(c1)OCO2 | 89.2 | 41.1 | 2.31 | 70.6 | – |
| COc1cc(/C=C/c2ccc(OCc3ccc(C(F)(F)F)cc3)cc2)cc(OC)c1 | 8.51 | > 100 | > 10 | 6.32 | – |
